Values of other authors, collected in patent US8748394B2, “Apo A-I mimetic peptides and methods of treatment” (Abbott Cardiovascular Systems Inc., priority 2007, dated 2014).
“Also recorded” adds a separate entry of the source. Square brackets hold non-standard residues; d marks the D form. Ends that are not written are not given here.

Tested on: reverse cholesterol transport
Details: for function in reverse cholesterol transport in vitro: when a phospholipid complex is presented; for effectiveness in reverse cholesterol transport: without a lipid complex (non-complex form)

DWFKAFYDKVAEKFKEAF [D-4F] ([dD][dW][dF][dK][dA][dF][dY][dD][dK][dV][dA][dE][dK][dF][dK][dE][dA][dF]) [18 amino acid Apo A-I mimetic peptide 4F, D enantiomer]
function in reverse cholesterol transport in vitro: function more effectively | effectiveness in reverse cholesterol transport: effective in reverse cholesterol transport without a lipid complex; also recorded: demonstrated an ability to function in a non-complex form

Ac-PALEDLRQGLLPVLESFKVFLSALEEYTKKLNTQ-NH2 [33-mer peptide mimetic, 33-mer peptide, helices 9/10]
need of phospholipid complex for effective reverse cholesterol transport: requires phospholipid complex formation

DWFKAFYDKVAEKFKEAF [L-4F] (not fully specified) [18 amino acid Apo A-I mimetic peptide 4F, L enantiomer]
function in reverse cholesterol transport in vitro: function more effectively | effectiveness in reverse cholesterol transport: demonstrated an ability to function in a non-complex form
